Test results: patent US9797002B2, “Methods and kits for genome-wide methylation of GpC sites and genome-wide determination of chromatin structure” (UNIVERSITY OF SOUTHERN CALIFORNIA, priority 2010, dated 2017)

Tested on: LD419
Test: RT-PCR analysis of L1-MET reactivation after 5-Aza-CdR treatment
Type: cell-based, human
Conditions: LD419 fibroblast cell line, 1 or 3 μM 5-Aza-CdR for 24 hours (day 3 after treatment), β-actin control
Text: (A) The functional domains of MET include the signal peptide (SP), sema domain at the N-terminus, the PSI domain, IPT repeats, the transmembrane domain (TM), and the kinase domain at the C-terminus. The structure of truncated MET proteins 1 and 2 are shown, encoded by transcripts derived from placenta (GenBank accession no. BX334980) and a bladder carcinoma cell line (BF208095), respectively. (B) The two […] transcripts, truncated L1-MET-1 (T-MET-1) and truncated L1-MET-2 (T-MET-2), were cloned into a pMEV expression vector with 2 HA tags fused at the N-terminal. Hela cells were transfected with either the empty pMEV vector, pMEV T-MET-1, or pMEV T-MET-2 and protein was extracted after 48 hours. The expression of truncated MET-1 (90 kDa) and truncated MET-2 (60 kDa) was detected by western blot using an HA antibody. (C) Results of 5′RACE reveal the start site for L1-MET within the L1 element. The transcriptional start site of L1-MET was confirmed by 5′RACE in the T24 cell line which expressed L1-MET. The underlined sequence is located inside of the LINE-1. […] Found at: doi:10.1371/journal.pgen. 1000917.s002 (1.22 MB TIF)
The transcript from the L1-MET anti-sense promoter contains its own exons 1 and 2, referred to as L1-MET exon 1 and L1-MET exon 2 (FIG. 7A). […]
Quantitative RT-PCR. Expression was determined by quantitative RT-PCR as described previously.

Nc1ncn([C@H]2C[C@H](O)[C@@H](CO)O2)c(=O)n1 [5-aza-deoxycytidine]
expression (reactivation) of the L1-MET transcript: lead to expression of L1-MET | expression (reactivation) of the L1-MET transcript (listed as 5-Aza-CdR): reactivation of L1-MET
